The values that follow come from ChEMBL document CHEMBL5030550, “A late-stage diversification via Heck-Matsuda arylation: Straightforward synthesis and cytotoxic/antiproliferative profiling of novel aryl-labdane-type derivatives” (Bioorg Med Chem Lett, 2021).

The subject of test [1] is HUVEC. Kind of test: Cytotoxicity against HUVEC assessed as reduction in cell viability measured after 72 hrs by MTT assay. It counts as cell-based. The note with it: Homo sapiens.
Test [2] relates to MCF7. The experiment in a line: Cytotoxicity against human MCF7 cells assessed as reduction in cell viability measured after 72 hrs by MTT assay. It counts as functional, cell-based. As to conditions: MCF7, 72 h.
The test system of test [3] is K562. Kind of test: Cytotoxicity against human K562 cells assessed as reduction in cell viability measured after 24 hrs by MTT assay. The test is classed as functional, cell-based. The note with it: K562, 24 h. (In general: Tetrazolium assays rely on reduction of a dye to a coloured formazan, in cell work by metabolically active cells.)
The test system of test [4] is THP-1. Kind of test: Cytotoxicity against human THP-1 cells assessed as reduction in cell viability measured after 72 hrs by MTT assay. The note with it: THP-1, 72 h. It counts as functional, cell-based.
Test [5] has as its system K562. The experiment in a line: Cytotoxicity against human K562 cells assessed as reduction in cell viability measured after 72 hrs by MTT assay. It counts as functional, cell-based. The note with it: K562, 72 h.
The test system of test [6] is MCF7. Kind of test: Cytotoxicity against human MCF7 cells assessed as reduction in cell viability measured after 24 hrs by MTT assay. The test is classed as functional, cell-based. The note with it: MCF7, 24 h.
The test system of test [7] is THP-1. Kind of test: Cytotoxicity against human THP-1 cells assessed as reduction in cell viability measured after 24 hrs by MTT assay. The test is classed as functional, cell-based. As to conditions: THP-1, 24 h.
Test [8] has as its system HUVEC. The experiment in a line: Cytotoxicity against HUVEC assessed as reduction in cell viability measured after 24 hrs by MTT assay. The note with it: Homo sapiens. The test is classed as cell-based.
The subject of test [9] is K562. The experiment in a line: Cell cycle arrest in human K562 cells assessed as accumulation at G1 phase at 25 uM measured after 24 hrs by propidium iodide staining based flow cytometry analysis (reference value: 43.5+/- 0.3%). The test is classed as functional. On the technique in general: A flow cytometer gives signals particle by particle.
In test [10] the test system is K562. The experiment in a line: Induction of apoptosis in human K562 cells at 25 uM after 24 hrs by PI staining based flow cytometric analysis (reference value: 0.1+/- 0.05%). The test is classed as functional.
For test [11], the system named is K562. Kind of test: Induction of autophagy in human K562 cells at 100 uM after 24 hrs (reference value: 3.9+/- 1.1%). It counts as functional.
Test [12] deals with K562. The experiment in a line: Induction of autophagy in human K562 cells at 50 uM after 24 hrs (reference value: 3.9+/- 1.1%). It counts as functional.
For test [13], the system named is K562. The experiment in a line: Cell cycle arrest in human K562 cells assessed as accumulation at sub G1 phase at 100 uM measured after 24 hrs by propidium iodide staining based flow cytometry analysis (reference value: 6.5+/- 0.7%). The test is classed as functional.
For test [14], the system named is K562. The experiment in a line: Cell cycle arrest in human K562 cells assessed as accumulation at G1 phase at 100 uM measured after 24 hrs by propidium iodide staining based flow cytometry analysis (reference value: 43.5+/- 0.3%). The test is classed as functional.
The subject of test [15] is K562. The experiment in a line: Cell cycle arrest in human K562 cells assessed as accumulation at G2/M phase at 50 uM measured after 24 hrs by propidium iodide staining based flow cytometry analysis (reference value: 25.6+/- 0.7%). It counts as functional.
Test [16] relates to K562. Kind of test: Cell cycle arrest in human K562 cells assessed as accumulation at sub G1 phase at 50 uM measured after 24 hrs by propidium iodide staining based flow cytometry analysis (reference value: 6.5+/- 0.7%). The test is classed as functional.
Test [17] deals with K562. Kind of test: Induction of autophagy in human K562 cells at 25 uM after 24 hrs (reference value: 3.9+/- 1.1%). It counts as functional.
For test [18], the system named is K562. Kind of test: Cell cycle arrest in human K562 cells assessed as accumulation at S phase at 50 uM measured after 24 hrs by propidium iodide staining based flow cytometry analysis (reference value: 22.8+/- 0.5%). It counts as functional.
In test [19] the test system is K562. Kind of test: Cell cycle arrest in human K562 cells assessed as accumulation at S phase at 100 uM measured after 24 hrs by propidium iodide staining based flow cytometry analysis (reference value: 22.8+/- 0.5%). It counts as functional.
Test [20] concerns K562. The experiment in a line: Cell cycle arrest in human K562 cells assessed as accumulation at sub G1 phase at 25 uM measured after 24 hrs by propidium iodide staining based flow cytometry analysis (reference value: 6.5+/- 0.7%). It counts as functional.
Test [21] concerns K562. Kind of test: Induction of apoptosis in human K562 cells at 100 uM after 24 hrs by PI staining based flow cytometric analysis (reference value: 0.1+/- 0.05%). The test is classed as functional.
In test [22] the test system is K562. Kind of test: Cell cycle arrest in human K562 cells assessed as accumulation at S phase at 25 uM measured after 24 hrs by propidium iodide staining based flow cytometry analysis (reference value: 22.8+/- 0.5%). The test is classed as functional.
The subject of test [23] is K562. The experiment in a line: Cell cycle arrest in human K562 cells assessed as accumulation at G2/M phase at 25 uM measured after 24 hrs by propidium iodide staining based flow cytometry analysis (reference value: 25.6+/- 0.7%). The test is classed as functional.
The subject of test [24] is K562. The experiment in a line: Cell cycle arrest in human K562 cells assessed as accumulation at G2/M phase at 100 uM measured after 24 hrs by propidium iodide staining based flow cytometry analysis (reference value: 25.6+/- 0.7%). It counts as functional.
The test system of test [25] is K562. Kind of test: Induction of apoptosis in human K562 cells at 50 uM after 24 hrs by PI staining based flow cytometric analysis (reference value: 0.1+/- 0.05%). It counts as functional.
Test [26] concerns K562. The experiment in a line: Induction of ROS production in human K562 cells at 100 uM incubated for 24 hrs relative to control. It counts as functional.
Test [27] relates to K562. The experiment in a line: Cell cycle arrest in human K562 cells assessed as accumulation at G1 phase at 50 uM measured after 24 hrs by propidium iodide staining based flow cytometry analysis (reference value: 43.5+/- 0.3%). It counts as functional.

For orientation: IC50 means the concentration at which inhibition is half-maximal. In the case of `Cc1ccc(/C=C2\CC[C@H]3C(C)(C)CCC[C@]3(C)[C@H]2CCC(C)CC(=O)O)cc1` (some centres not stated), the half-inhibitory concentration (IC50) in the test with HUVEC [1] is greater than 200 µM; in the test with MCF7 [2], greater than 200 µM; with K562 [3], greater than 200 µM; in the test on THP-1 [4], 91 µM; with K562 [5], greater than 200 µM; in the test on MCF7 [6] it was greater than 200 µM. Moreover, the IC50 with THP-1 [7] and in the test on HUVEC [8] was greater than 200 µM throughout.

Turning to `COc1ccc(/C=C2\CC[C@H]3C(C)(C)CCC[C@]3(C)[C@H]2CCC(C)CC(=O)O)cc1OC` (some centres not stated), the IC50 in the test with HUVEC [1] is greater than 200 µM; with MCF7 [2], greater than 200 µM; in the test with K562 [3], greater than 200 µM; with THP-1 [4] it was 106 µM; with K562 [5], greater than 200 µM; with MCF7 [6] it was greater than 200 µM. Moreover, the IC50 with THP-1 [7] is 178 µM; with HUVEC [8], greater than 200 µM.

Take `CC(CC[C@H]1/C(=C/c2ccc(Cl)cc2)CC[C@H]2C(C)(C)CCC[C@]12C)CC(=O)O` (some centres not stated): the IC50 with HUVEC [1], in the test with K562 [3], in the test with THP-1 [4], with K562 [5], in the test with THP-1 [7] and in the test with HUVEC [8] was greater than 200 µM in each case.

On to `COc1ccc(/C=C2\CC[C@H]3C(C)(C)CCC[C@]3(C)[C@H]2CCC(C)CC(=O)O)cc1` (some centres not stated), for which the half-maximal inhibitory concentration (IC50) with HUVEC [1], in the test with K562 [3], in the test on THP-1 [4], in the test on K562 [5], with THP-1 [7] and in the test with HUVEC [8] was greater than 200 µM throughout.

As for `CC(CC[C@H]1/C(=C/c2ccc(Br)cc2)CC[C@H]2C(C)(C)CCC[C@]12C)CC(=O)O` (some centres not stated), the IC50 in the test with HUVEC [1], with K562 [3], in the test on THP-1 [4], with K562 [5], with THP-1 [7] and in the test on HUVEC [8] was greater than 200 µM throughout.

Consider `CC(CC[C@H]1/C(=C/c2ccc(F)cc2)CC[C@H]2C(C)(C)CCC[C@]12C)CC(=O)O` (some centres not stated), for which the IC50 with HUVEC [1], with K562 [3], in the test on THP-1 [4], in the test on K562 [5], in the test on THP-1 [7] and with HUVEC [8] was greater than 200 µM in each case.

Turning to `CC(CC[C@H]1/C(=C/c2ccc(I)cc2)CC[C@H]2C(C)(C)CCC[C@]12C)CC(=O)O` (some centres not stated), the Activity with K562 [9] is reported as 44.5%; in the test with K562 [10], 2.4%; with K562 [11] it was 25.2%; in the test on K562 [12], 14.6%; in the test on K562 [13], 35.8%; with K562 [14] it was 27.5%. Also, the Activity in the test with K562 [15] turned out to be 21.9%; in the test on K562 [16] it was 8.5%; with K562 [17] it was 7.3%; in the test on K562 [18], 23.2%; with K562 [19], 18.2%; in the test with K562 [20], 7.2%. In addition, the Activity is 1.1% with K562 [21]; 24.4% with K562 [22]; 24.1% with K562 [23]; 17.1% in the test on K562 [24]; 0.4% in the test on K562 [25]; 17.7% in the test on K562 [26]. Moreover, the Activity with K562 [27] was 43.3%. Moreover, the IC50 in the test on HUVEC [1] was determined as 100 µM; in the test with MCF7 [2], 50 µM; in the test on K562 [3] it was 98 µM; in the test with THP-1 [4] it was 33 µM; in the test on K562 [5] it was 55 µM; with MCF7 [6] it was 89 µM. Also, the IC50 in the test on THP-1 [7] was determined as 68 µM; with HUVEC [8], 194 µM.

`C=C1CC[C@H]2C(C)(C)CCC[C@]2(C)[C@H]1CCC(C)CC(=O)O` (some centres not stated): the IC50 is 168 µM in the test on HUVEC [1]; greater than 200 µM in the test with MCF7 [2]; greater than 200 µM with K562 [3]; 132 µM in the test with THP-1 [4]; greater than 200 µM with K562 [5]; greater than 200 µM in the test on MCF7 [6]. Further, the IC50 in the test with THP-1 [7] and in the test with HUVEC [8] was greater than 200 µM each time.

For the compound `C=C1CC[C@H]2C(C)(C)CCC[C@]2(C)[C@H]1CCC(C)CC(=O)OC` (some centres not stated), the IC50 in the test on HUVEC [1], in the test on MCF7 [2], with K562 [3], with THP-1 [4], in the test with K562 [5] and with MCF7 [6] was greater than 200 µM in each case. Moreover, the IC50 with THP-1 [7] and in the test on HUVEC [8] was greater than 200 µM in each case.

Consider `CC(CC[C@H]1/C(=C/c2ccc([N+](=O)[O-])cc2)CC[C@H]2C(C)(C)CCC[C@]12C)CC(=O)O` (some centres not stated), for which the concentration for half-maximal inhibition (IC50) in the test on HUVEC [1] is 194 µM; in the test on MCF7 [2] it was 124 µM; in the test on K562 [3], greater than 200 µM; in the test with THP-1 [4] it was 68 µM; with K562 [5], 169 µM; in the test with MCF7 [6] it was greater than 200 µM. The IC50 was 180 µM with THP-1 [7] and greater than 200 µM in the test with HUVEC [8].

With `COc1cc([C@@H]2c3cc4c(cc3[C@@H](O[C@@H]3O[C@@H]5CO[C@@H](C)O[C@H]5[C@H](O)[C@H]3O)[C@H]3COC(=O)[C@H]23)OCO4)cc(OC)c1O` [ETOPOSIDE], the IC50 is 29 µM with HUVEC [1]; 50 µM in the test on MCF7 [2]; greater than 200 µM with K562 [3]; less than 6.25 µM with THP-1 [4]; 66 µM with K562 [5]; greater than 100 µM with MCF7 [6]. The IC50 was 59 µM in the test with THP-1 [7] and greater than 200 µM with HUVEC [8]. In addition, the Activity with K562 [13] came to 13%; in the test with K562 [14], 20.6%; in the test on K562 [19], 26%; with K562 [24], 30.4%.

Consider `O=c1[nH]cc(F)c(=O)[nH]1` [FLUOROURACIL], for which the IC50 is 96 µM in the test with HUVEC [1], 166 µM with MCF7 [2], greater than 200 µM in the test with MCF7 [6] and greater than 200 µM with HUVEC [8].
